Measurements published in ChEMBL document CHEMBL1201862, “PubChem BioAssay data set” (2004).
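Step 1: Grow cells in 96-well plates. Step 2: Expose to compound for 48 hours at 5 concentrations. Step 3: Interpolate endpoints linearly; if unreached, use highest concentration. GI50 is the concentration that inhibits growth by half.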 Active and inactive are the calls of the source. No stated cut-off is given here; in the data, active = GI50 up to about 1.1 µM and inactive = higher.

Key:
Test in all cases: inhibition of tumour cell growth, NCI panel, 48 h
[1] = test system: A498
[2] = test system: ACHN
[3] = test system: HCC 2998
[4] = test system: HCT-15
[5] = test system: HOP-62
[6] = test system: K562
[7] = test system: KM12
[8] = test system: MCF7
[9] = test system: NCI-H226
[10] = test system: NCI-H23
[11] = test system: NCI-H522
[12] = test system: OVCAR-4
[13] = test system: RXF 393
[14] = test system: SF-268
[15] = test system: SF-539
[16] = test system: SN12C
[17] = test system: SNB-19
[18] = test system: T47D
[19] = test system: TK-10
[20] = test system: UACC-62

Cc1ccc(C(=O)/C=C2/Nc3ccc([N+](=O)[O-])cc3N/C2=C/C(=O)c2ccc(C)cc2)cc1
GI50 [1]: 44.7 µM (inactive) | GI50 [2]: 37.5 µM (inactive) | GI50 [3]: > 100 µM (inactive) | GI50 [4]: 90.8 µM | GI50 [5]: 15.3 µM (inactive) | GI50 [6]: 85.5 µM (inactive) | GI50 [7]: > 100 µM (inactive) | GI50 [8]: 84.1 µM (inactive) | GI50 [9]: > 100 µM (inactive) | GI50 [10]: 37.7 µM (inactive) | GI50 [11]: 47.1 µM (inactive) | GI50 [12]: 61.4 µM (inactive) | GI50 [13]: 36.6 µM (inactive) | GI50 [14]: 52.4 µM (inactive) | GI50 [15]: 52.8 µM (inactive) | GI50 [16]: > 100 µM (inactive) | GI50 [17]: 43.8 µM (inactive) | GI50 [18]: > 100 µM (inactive) | GI50 [19]: > 100 µM (inactive) | GI50 [20]: 24.7 µM (inactive)

CSc1nc(NC2OCC(OC(C)=O)C(OC(C)=O)C2OC(C)=O)c(/N=C\C=N\c2c(NC3OCC(OC(C)=O)C(OC(C)=O)C3OC(C)=O)nc(SC)[nH]c2=O)c(=O)[nH]1 (stereo not given)
GI50 [1]: > 100 µM (inactive) | GI50 [2]: > 67.8 µM (inactive) | GI50 [3]: > 100 µM (inactive) | GI50 [4]: > 100 µM | GI50 [5]: 30.5 µM (inactive) | GI50 [6]: > 100 µM (inactive) | GI50 [7]: > 100 µM (inactive) | GI50 [8]: 46.5 µM (inactive) | GI50 [9]: > 52.8 µM (inactive) | GI50 [10]: > 91 µM (inactive) | GI50 [11]: > 61.2 µM (inactive) | GI50 [12]: > 100 µM (inactive) | GI50 [13]: 22.8 µM (inactive) | GI50 [14]: > 100 µM (inactive) | GI50 [15]: 43.7 µM (inactive) | GI50 [16]: > 100 µM (inactive) | GI50 [17]: 46.3 µM (inactive) | GI50 [18]: 89.7 µM (inactive) | GI50 [19]: 56.9 µM (inactive) | GI50 [20]: > 100 µM (inactive)

COc1ccc2[nH]c(C(=O)N3CC(CCl)c4ccc([N+](=O)[O-])cc43)cc2c1 (stereo not given)
GI50 [1]: > 100 µM (inactive) | GI50 [2]: > 100 µM (inactive) | GI50 [3]: > 100 µM (inactive) | GI50 [4]: > 100 µM | GI50 [5]: > 100 µM (inactive) | GI50 [6]: > 100 µM (inactive) | GI50 [7]: > 31.8 µM (inactive) | GI50 [8]: 6.41 µM (inactive) | GI50 [9]: 33.8 µM (inactive) | GI50 [10]: > 100 µM (inactive) | GI50 [11]: 75 µM (inactive) | GI50 [12]: > 64.4 µM (inactive) | GI50 [13]: > 65.5 µM (inactive) | GI50 [14]: > 100 µM (inactive) | GI50 [15]: > 90.4 µM (inactive) | GI50 [16]: > 100 µM (inactive) | GI50 [17]: > 100 µM (inactive) | GI50 [18]: > 21.6 µM (inactive) | GI50 [19]: > 100 µM (inactive) | GI50 [20]: > 100 µM (inactive)

O=[N+]([O-])/C(C(Cl)=C(Cl)Cl)=C(/Sc1ccccc1)N1CCOCC1
GI50 [1]: 14.6 µM (inactive) | GI50 [2]: 4.82 µM (inactive) | GI50 [3]: 15.3 µM (inactive) | GI50 [4]: 3.45 µM | GI50 [5]: 17.5 µM (inactive) | GI50 [6]: 1.74 µM (inactive) | GI50 [7]: 13.4 µM (inactive) | GI50 [8]: 2.57 µM (inactive) | GI50 [9]: 11.4 µM (inactive) | GI50 [10]: 11.3 µM (inactive) | GI50 [11]: 4.31 µM (inactive) | GI50 [12]: 11.6 µM (inactive) | GI50 [13]: 1.92 µM (inactive) | GI50 [14]: 4.46 µM (inactive) | GI50 [15]: 6.03 µM (inactive) | GI50 [16]: 4.76 µM (inactive) | GI50 [17]: 6.75 µM (inactive) | GI50 [18]: 3.02 µM (inactive) | GI50 [19]: 6.68 µM (inactive) | GI50 [20]: 3.62 µM (inactive)

CC(C)(C)C1=NN=C2c3ccccc3C(=O)C21 (stereo not given)
GI50 [1]: 21.3 µM (inactive) | GI50 [2]: 43.1 µM (inactive) | GI50 [3]: 4.6 µM (inactive) | GI50 [4]: 29.4 µM | GI50 [5]: > 100 µM (inactive) | GI50 [6]: 35.2 µM (inactive) | GI50 [7]: 18.9 µM (inactive) | GI50 [8]: 51.1 µM (inactive) | GI50 [9]: 41.7 µM (inactive) | GI50 [10]: 49 µM (inactive) | GI50 [11]: 35.4 µM (inactive) | GI50 [12]: 38.8 µM (inactive) | GI50 [13]: 81.3 µM (inactive) | GI50 [14]: 58.9 µM (inactive) | GI50 [15]: 38.4 µM (inactive) | GI50 [16]: 42.6 µM (inactive) | GI50 [17]: 91.2 µM (inactive) | GI50 [18]: > 100 µM (inactive) | GI50 [19]: 53 µM (inactive) | GI50 [20]: 27.4 µM (inactive)

CC(=O)OCC1OC(n2c(-c3ccc(C)cc3)cc(-c3ccccc3)c(C#N)c2=S)C(OC(C)=O)C(OC(C)=O)C1OC(C)=O (stereo not given)
GI50 [1]: 31 µM (inactive) | GI50 [2]: > 100 µM (inactive) | GI50 [3]: > 100 µM (inactive) | GI50 [4]: > 100 µM | GI50 [5]: > 100 µM (inactive) | GI50 [6]: > 100 µM (inactive) | GI50 [7]: > 100 µM (inactive) | GI50 [8]: > 100 µM (inactive) | GI50 [9]: > 100 µM (inactive) | GI50 [10]: > 100 µM (inactive) | GI50 [11]: > 100 µM (inactive) | GI50 [12]: 81.1 µM (inactive) | GI50 [13]: > 100 µM (inactive) | GI50 [14]: > 100 µM (inactive) | GI50 [15]: > 100 µM (inactive) | GI50 [16]: > 100 µM (inactive) | GI50 [17]: > 100 µM (inactive) | GI50 [18]: > 100 µM (inactive) | GI50 [19]: > 100 µM (inactive) | GI50 [20]: > 100 µM (inactive)
